Consider 10 molecules from US7365160B2, “Mutated constitutively active nuclear orphan receptor” (The United States of America as represented by the …, priority 2002, dated 2008).

Where a chain is given by its changes, count along the chain named. Names may count otherwise.

In one test the target is T1, mCART350M (Mus musculus, UniProt O35627, T350M).
T1 construct: mCAR and hCAR expression vectors were constructed by cloning an entire mCAR; expressed in transfected cells; host or cells: HepG2
T1 sequence (O35627 1-358 T350M): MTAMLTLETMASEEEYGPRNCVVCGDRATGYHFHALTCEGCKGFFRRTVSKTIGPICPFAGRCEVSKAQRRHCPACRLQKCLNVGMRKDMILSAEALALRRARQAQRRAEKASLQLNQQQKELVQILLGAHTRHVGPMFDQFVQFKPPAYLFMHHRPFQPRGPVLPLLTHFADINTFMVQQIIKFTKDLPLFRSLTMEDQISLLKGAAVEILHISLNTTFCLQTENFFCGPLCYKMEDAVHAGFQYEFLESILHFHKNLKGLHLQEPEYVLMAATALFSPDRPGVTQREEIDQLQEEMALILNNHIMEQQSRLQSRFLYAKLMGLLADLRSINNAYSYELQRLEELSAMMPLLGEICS
Briefly: luciferase reporter assay in HepG2 cells, mutant mCART350M. The test is classed as cell-based. In general terms: A reporter such as luciferase makes a cellular process visible.

Test [1] deals with T2, mCAR (Mus musculus, UniProt O35627).
T2 construct: mCAR and hCAR expression vectors were constructed by cloning an entire mCAR; expressed in transfected cells; host or cells: HepG2
T2 sequence (O35627 1-358): T1 sequence (O35627 1-358 T350M) with M350T
Conditions: Kawamoto et al. 2000; cited from earlier work.

Test [2] deals with chimeric receptors hmm and hhm. Briefly: luciferase reporter assay in HepG2 cells, chimeric receptors with mouse LBD. The test is classed as cell-based, mouse/human.
For test [3], the target named is T2, mCAR. Briefly: cell-based transfection assay, (NR1)5-tk-luciferase reporter in HepG2 cells, wild-type mCAR. Particulars: for degree of repression: not affected by the mutation of Thr350. An excerpt:
mCAR and hCAR expression vectors were constructed by cloning an entire mCAR (GenBank Accession No: AF009327, deposited on Jul. 22, 1997; SEQ ID NO: 15) or hCAR (GenBank Accession No: Z30425, deposited on Mar. 8, 1994; SEQ ID NO: 17) coding sequence into BamHI and XhoI sites of pCR3 plasmid as described previously (Sueyoshi et al., J Biol Chem 274:6043-6, 1999). Polymerase chain reaction (PCR) was used to amplify the desired hCAR or mCAR fragment from the plasmid. The amplified fragments used for the chimeras were nucleotides encoding amino acids: 1 to 86 of mCAR and 77 to 348 of hCAR (mhh), 1 to 116 of mCAR and 107 to 348 of hCAR (mmh), 1 to 76 of hCAR and 87 to 358 of mCAR (hmm), 1 to 106 of hCAR and 117 to 358 of mCAR (hhm). These fragments were PCR amplified using pfu polymerase and enzymatically phosphorylated primers. The amplified fragments were ligated, and a second PCR amplification was performed on the ligated DNA with the primers for 5′ and 3′ end of the chimeric DNA. The resulting second PCR products were cloned into a pCR3 vector (Invitrogen) with newly created BamHI and XhoI sites at the 5′ and the 3′ ends, respectively.
A mouse SRC-1 cDNA corresponding to amino acid residues 633 to 1450 of SRC-1 (GenBank Accession No: U64828), was amplified and cloned into the EcoRI and Hind III site of pcDNA3.1/myc-His(−)B plasmid (Invitrogen), thereby generating the SRC-1-expression plasmid pcDNA3.1-SRC-1. Wild-type mCAR or mCART350M was co-transfected with or without the SRC-1-expression plasmid (0.1 μg) into HepG2 cells.
The KN-62 repression was examined with and without the co-expression of SRC-1 (EXAMPLE 3).

The next test concerns the target T3, hCAR (Homo sapiens, UniProt Q14994).
T3 construct: expressed in transfected cells; host or cells: HepG2
T3 sequence (Q14994 1-348 isoform Q14994-2): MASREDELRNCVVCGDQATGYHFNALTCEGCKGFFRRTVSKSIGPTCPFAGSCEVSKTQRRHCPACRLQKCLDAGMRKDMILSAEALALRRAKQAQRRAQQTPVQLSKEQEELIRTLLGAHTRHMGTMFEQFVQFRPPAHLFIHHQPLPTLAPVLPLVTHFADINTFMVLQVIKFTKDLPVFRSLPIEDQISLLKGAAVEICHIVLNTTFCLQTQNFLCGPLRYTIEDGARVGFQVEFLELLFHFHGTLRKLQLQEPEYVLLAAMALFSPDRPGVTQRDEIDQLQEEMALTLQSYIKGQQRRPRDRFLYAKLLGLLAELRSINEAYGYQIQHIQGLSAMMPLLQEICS
Conditions: Kawamoto et al. 2000; cited from earlier work.

The test system of a further test is mCAR T176V / T176L. Briefly: luciferase reporter gene activation assay (PBREM) in HepG2 cells, mCAR Thr176 mutants. Particulars: T176V or T176L; did not require exogenous SRC-1.
The next test concerns the target T4, mCAR L352A (Mus musculus, UniProt O35627, L352A).
T4 construct: mCAR and hCAR expression vectors were constructed by cloning an entire mCAR; expressed in transfected cells; host or cells: HepG2
T4 sequence (O35627 1-358 L352A): T1 sequence (O35627 1-358 T350M) with M350T, L352A
Briefly: luciferase reporter gene activation assay (PBREM) in HepG2 cells, mCAR L352A mutant. The test is classed as cell-based. Conditions: only in the presence of exogenous SRC-1. An excerpt: To examine the role of Leu352 in mCAR activity, site-directed mutagenesis was used as described in EXAMPLES 2 and 6.

The test system of test [4] is chimeric receptors mh159, mh224, mh315, mh345. Briefly: luciferase reporter assay in HepG2 cells, chimeric receptors within the LBD. The test is classed as cell-based, mouse/human.
In test [5] the target is wild-type mouse CAR (mCAR; nuclear orphan receptor constitutively active receptor / constitutive androstane receptor) (mouse). Briefly: cell-based or functional assay.
The target of test [6] is mCAR T350M mutant (mouse). Briefly: cell-based or functional assay.
In test [7] the test system is PB-responsive enhancer module (PBREM) luciferase reporter. Briefly: constitutive activity of mutated CAR in luciferase reporter gene activation assay in HepG2 cells. Particulars: mCAR mutants versus mCAR.

Description for mCART350M: The transfected cells were then treated, and luciferase assays performed as described in EXAMPLE 1.
To determine if this effect could be disrupted by mutating Thr350 to a Met, the mCART350M mutant described in EXAMPLE 2 was used. The KN-62 repression was examined with and without the co-expression of SRC-1 (EXAMPLE 3).

As to `CN([C@@H](Cc1ccc(OS(=O)(=O)c2cccc3cnccc23)cc1)C(=O)N1CCN(c2ccccc2)CC1)S(=O)(=O)c1cccc2cnccc12` [KN-62], the “repression of receptor activity by KN-62” value was “similarly repressed” on mCART350M (mCART350M, KN-62 0.1-10 μM, with and without SRC-1); “similarly repressed” at mCAR [3] (wild-type mCAR, KN-62 0.1-10 μM, with and without SRC-1). The “repression of constitutive activity of mCAR” value at mCAR [1] is reported as “represses”. In addition, the “repression of chimera activity” value in test [2] (chimeras hmm and hhm) is listed as 2-4 fold. The degree of repression is listed as 20-30% on mCAR [3] (in the absence of SRC-1) and 80% at mCAR [3] (in the presence of co-expressed SRC-1). In addition, at hCAR, the “repression of constitutive activity of hCAR” value was “not hCAR”.
As for `Clc1cnc(Oc2ccc(Oc3ncc(Cl)cc3Cl)cc2)c(Cl)c1` [TCPOBOP, 1,4-bis [2-(3,5-dichloropyridyloxy)]benzene], the “activation of mutated mCAR” value in the test with mCAR T176V / T176L is “effectively activated”. For the same molecule, the “activation of L352A mutant” value on mCAR L352A is “activated”. Besides, the “re-activation of KN-62-repressed chimeric receptors” value in test [2] (chimeras hmm and hhm repressed by KN-62) is listed as “re-activated”.
For `CN(C)CCCN1c2ccccc2Sc2ccc(Cl)cc21` [chloropromazine], at mCAR L352A, the “activation of L352A mutant” value is recorded as “activated”.
Turning to `CC(=O)[C@H]1CC[C@H]2[C@@H]3CCC4=CC(=O)CC[C@]4(C)[C@H]3CC[C@]12C` [progesterone], in test [4], the “repression of chimeric receptor activity” value was “None of these chimeric receptors was repressed”.
For the molecule `C[C@]12CC[C@H]3[C@@H](CCC4=CC(=O)CC[C@@]43C)[C@@H]1CC[C@@H]2O` [testosterone], the “repression of mCART350M activity” value on mCART350M (HepG2 cells) is “not the T350M mutant”. On mCAR [3] (wild-type mCAR, HepG2 cells, 24 hours treatment), the “repression of mCAR activity (luciferase reporter)” value is given as “repressed”.
As for “mouse steroid receptor co-activator 1 (SRC-1), amino acid residues 633 to 1450 (from UniProt P70365 633-1447)”, the trans-activation activity (NR1-luciferase reporter gene activity in co-transfected HepG2 cells, relative to DMSO-treated cells) in test [5] and in test [6] was 3 to 4 fold throughout.

B1: SRC-1: co-activator steroid receptor co-activator 1, mouse residues 633 to 1450 expressed from pcDNA3.1-SRC-1 (protein)
chain: TSHKLVQLLTTTAEQQLRHADIDTSCKDVLSCTGTSSSASSNPSGGTCPSSHSSLTERHKILHRLLQEGSPSDITTLSVEPEKKDSVPASTAVSVSGQSQGSASIKLELDAAKKKESKDHQLLRYLLDKDEKDLRSTPNLCLDDVKVKVEKKEQMDPCNTNPTPMTKPAPEEVKLESQSQFTADLDQFDQLLPTLEKAAQLPSLCETDRMDGAVTGVSIKAEVLPASLQPTTARAAPRLSRLPELELEAIDNQFGQPGAGDQIPWANNTLTTINQNKPEDQCISSQLDELLCPPTTVEGRNDEKALLEQLVSFLSGKDETELAELDRALGIDKLVQGGGLDVLSERFPPQQATPPLMMEDRPTLYSQPYSSPSPTAGLSGPFQGMVRQKPSLGAMPVQVTPPRGTFSPNMGMQPRQTLNRPPAAPNQLRLQLQQRLQGQQQLMHQNRQAILNQFAANAPVGMNMRSGMQQQITPQPPLNAQMLAQRQRELYSQQHRQRQIIQQQRAMLMRHQSFGNNIPPSSGLPVQMGTPRLPQGAPQQFPYPPNYGTNPGTPPASTSPFSQLAANPEASLATRSSMVNRGMAGNMGGQFGAGISPQMQQNVFQYPGPGLVPQGEATFAPSLSPGSSMVPMPVPPPQSSLLQQTPPTSGYQSPDMKAWQQGTMGNNNVFSQAVQSQPAPAQPGVYNNMSITVSMAGGNANIQNMNPMMGQMQMSSLQMPGMNTVCSEQMNDPALRHTGLYCNQLSSTDLLKTDADGNQQVQQVQVFADVQCTVNLVGGDPYLNQPGPLGTQKPTSGPQTPQAQQKSLLQQLLTE
With B1, the “increase of trans-activation activity by co-expression” value is 3- to 4 fold with mCART350M (mCART350M, relative to DMSO-treated cells) and 3- to 4 fold in the test with mCAR [3] (wild-type mCAR, relative to DMSO-treated cells).

B2: T176V: mCAR with single mutation of Thr176 to valine (protein, UniProt O35627 1-358, looked up, variant T176V)
Nuclear receptor subfamily 1 …: T1 sequence (O35627 1-358 T350M) with T176V, M350T
For the molecule B2, in test [7], the “constitutive activity of mCAR” value is given as “decreased”.

B3: L352A: mCAR with Ala substitution of Leu352 (protein, UniProt O35627 1-358, looked up, variant L352A)
Nuclear receptor subfamily 1 …: T1 sequence (O35627 1-358 T350M) with M350T, L352A
Regarding B3, the “constitutive activity of mCAR” value in test [7] was “decreased”.

B4: T176L: mCAR with single mutation of Thr176 to leucine (protein, UniProt O35627 1-358, looked up, variant T176L)
Nuclear receptor subfamily 1 …: T1 sequence (O35627 1-358 T350M) with T176L, M350T
Turning to B4, the “constitutive activity of mCAR” value in [7] is listed as “decreased”.
